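Five compound concentrations were applied to cells in 96-well plates for 48 hours; endpoints were derived by simple linear interpolation of the resulting dose-response curve. TGI marks complete inhibition of growth.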
How the values were obtained:
Experiment in all cases: inhibition of tumour cell growth, NCI panel, 48 h
RPMI-8226 leukemia = tested on: RPMI-8226 leukemia
SF-539 CNS = tested on: SF-539 CNS
M14 melanoma = tested on: M14 melanoma
NCI/ADR-RES ovarian = tested on: NCI/ADR-RES ovarian
SK-OV-3 ovarian = tested on: SK-OV-3 ovarian
A549 NSCLC = tested on: A549 NSCLC
K-562 leukemia = tested on: K-562 leukemia
NCI-H23 lung = tested on: NCI-H23 lung
CCRF-CEM leukemia = tested on: CCRF-CEM leukemia
MCF7 breast = tested on: MCF7 breast
MDA-N = tested on: MDA-N
U251 CNS = tested on: U251 CNS
SF-268 CNS = tested on: SF-268 CNS
HOP-62 NSCLC = tested on: HOP-62 NSCLC
SNB-19 CNS = tested on: SNB-19 CNS
IGROV1 ovarian = tested on: IGROV1 ovarian
NCI-H460 lung = tested on: NCI-H460 lung
BT-549 breast = tested on: BT-549 breast
MDA-MB-435 = tested on: MDA-MB-435
SK-MEL-28 melanoma = tested on: SK-MEL-28 melanoma
UACC-62 melanoma = tested on: UACC-62 melanoma
MDA-MB-231 breast = tested on: MDA-MB-231 breast
LOX IMVI melanoma = tested on: LOX IMVI melanoma
SK-MEL-5 melanoma = tested on: SK-MEL-5 melanoma
786-0 renal = tested on: 786-0 renal
MOLT-4 leukemia = tested on: MOLT-4 leukemia
ACHN renal = tested on: ACHN renal
HS 578T breast = tested on: HS 578T breast
HCT-15 colon = tested on: HCT-15 colon
UACC-257 melanoma = tested on: UACC-257 melanoma
RXF 393 renal = tested on: RXF 393 renal
UO-31 renal = tested on: UO-31 renal
SN12C renal = tested on: SN12C renal
COLO 205 colon = tested on: COLO 205 colon
SR leukemia = tested on: SR leukemia
OVCAR-3 ovarian = tested on: OVCAR-3 ovarian
OVCAR-8 ovarian = tested on: OVCAR-8 ovarian
MALME-3M melanoma = tested on: MALME-3M melanoma
T-47D breast = tested on: T-47D breast
HOP-92 NSCLC = tested on: HOP-92 NSCLC
HL-60(TB) leukemia = tested on: HL-60(TB) leukemia
KM12 colon = tested on: KM12 colon
A498 renal = tested on: A498 renal
SW-620 colon = tested on: SW-620 colon
HCT-116 colon = tested on: HCT-116 colon
TK-10 renal = tested on: TK-10 renal
NCI-H226 lung = tested on: NCI-H226 lung
HCC-2998 colon = tested on: HCC-2998 colon
NCI-H522 lung = tested on: NCI-H522 lung
EKVX NSCLC = tested on: EKVX NSCLC
SF-295 CNS = tested on: SF-295 CNS
DU-145 prostate = tested on: DU-145 prostate
OVCAR-4 ovarian = tested on: OVCAR-4 ovarian
HT29 colon = tested on: HT29 colon
PC-3 prostate = tested on: PC-3 prostate
SK-MEL-2 melanoma = tested on: SK-MEL-2 melanoma
OVCAR-5 ovarian = tested on: OVCAR-5 ovarian

Measured: TGI

Cc1nc(C)c(N2CCN(Cc3ccccc3)CC2)c(=O)[nH]1
> 100 µM: RPMI-8226 leukemia | SF-539 CNS | M14 melanoma | NCI/ADR-RES ovarian | SK-OV-3 ovarian | A549 NSCLC | K-562 leukemia | NCI-H23 lung | CCRF-CEM leukemia | MCF7 breast | MDA-N | U251 CNS | SF-268 CNS | HOP-62 NSCLC | SNB-19 CNS | IGROV1 ovarian | NCI-H460 lung | BT-549 breast | MDA-MB-435 | SK-MEL-28 melanoma | UACC-62 melanoma | MDA-MB-231 breast | LOX IMVI melanoma | SK-MEL-5 melanoma | 786-0 renal | MOLT-4 leukemia | ACHN renal | HS 578T breast | HCT-15 colon | UACC-257 melanoma | RXF 393 renal | UO-31 renal | SN12C renal | COLO 205 colon | SR leukemia | OVCAR-3 ovarian | OVCAR-8 ovarian | MALME-3M melanoma | T-47D breast | HOP-92 NSCLC | HL-60(TB) leukemia | KM12 colon | A498 renal | SW-620 colon | HCT-116 colon | TK-10 renal | NCI-H226 lung | HCC-2998 colon | NCI-H522 lung | EKVX NSCLC | SF-295 CNS | DU-145 prostate | OVCAR-4 ovarian | HT29 colon | PC-3 prostate

Cc1cn(CC(=S)NCCc2c[nH]c3ccccc23)c(=O)[nH]c1=O
> 100 µM: RPMI-8226 leukemia | SF-539 CNS | M14 melanoma | NCI/ADR-RES ovarian | SK-OV-3 ovarian | A549 NSCLC | K-562 leukemia | NCI-H23 lung | CCRF-CEM leukemia | MCF7 breast | MDA-N | U251 CNS | SF-268 CNS | HOP-62 NSCLC | SNB-19 CNS | IGROV1 ovarian | BT-549 breast | MDA-MB-435 | SK-MEL-2 melanoma | SK-MEL-28 melanoma | UACC-62 melanoma | MDA-MB-231 breast | LOX IMVI melanoma | SK-MEL-5 melanoma | OVCAR-5 ovarian | 786-0 renal | MOLT-4 leukemia | ACHN renal | HS 578T breast | HCT-15 colon | RXF 393 renal | UO-31 renal | SN12C renal | COLO 205 colon | SR leukemia | OVCAR-3 ovarian | MALME-3M melanoma | T-47D breast | HOP-92 NSCLC | HL-60(TB) leukemia | KM12 colon | A498 renal | SW-620 colon | HCT-116 colon | NCI-H226 lung | EKVX NSCLC | DU-145 prostate | OVCAR-4 ovarian | HT29 colon | PC-3 prostate
